According to patent publication US11492335B2, “Aryl or heteroaryl triazolone derivatives or salts thereof, or pharmaceutical compositions comprising the same” (YUHAN CORPORATION, priority 2018, dated 2022):
Counter-ions that a name gives are not always drawn. Like-named read-outs stand apart in the source and are kept apart here.

Assays:
Format in all cases: biochemical
recombinant human VAP-1 = target: T1, recombinant human VAP-1 (Homo sapiens, UniProt Q16853); assay: Activity on recombinant human VAP-1, Amplex Red HRP-coupled hydrogen peroxide assay, benzylamine substrate; details: recombinant human VAP-1, benzylamine substrate, read-out: Inhibitory Activity (IC50, nM) human VAP-1
T1 construct: purchased R&D systems
T1 sequence (Q16853 1-763): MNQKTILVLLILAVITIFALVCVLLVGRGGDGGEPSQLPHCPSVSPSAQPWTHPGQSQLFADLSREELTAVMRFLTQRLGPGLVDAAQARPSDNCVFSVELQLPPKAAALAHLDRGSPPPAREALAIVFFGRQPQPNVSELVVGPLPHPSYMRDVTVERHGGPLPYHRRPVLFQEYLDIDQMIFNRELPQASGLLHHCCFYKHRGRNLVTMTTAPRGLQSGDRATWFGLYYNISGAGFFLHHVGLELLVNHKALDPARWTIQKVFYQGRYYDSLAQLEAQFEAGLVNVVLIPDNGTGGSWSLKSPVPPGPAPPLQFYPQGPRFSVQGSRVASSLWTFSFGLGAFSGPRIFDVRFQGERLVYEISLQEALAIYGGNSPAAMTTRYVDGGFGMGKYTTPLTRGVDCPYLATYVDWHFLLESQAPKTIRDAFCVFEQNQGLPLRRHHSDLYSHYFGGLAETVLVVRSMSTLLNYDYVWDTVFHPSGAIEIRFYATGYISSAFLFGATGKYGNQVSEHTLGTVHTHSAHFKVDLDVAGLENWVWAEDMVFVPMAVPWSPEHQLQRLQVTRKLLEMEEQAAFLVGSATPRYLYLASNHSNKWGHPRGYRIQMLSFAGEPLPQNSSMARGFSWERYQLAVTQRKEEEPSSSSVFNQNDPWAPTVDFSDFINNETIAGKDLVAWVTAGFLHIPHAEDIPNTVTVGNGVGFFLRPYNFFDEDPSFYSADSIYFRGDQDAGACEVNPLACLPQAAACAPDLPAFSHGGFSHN
Outline: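 Fluorescence of resorufin formed from H2O2 (ex 544 nm, em 590 nm) was tracked for 1-2 h after adding 1 mM benzylamine, 200 uM Amplex Red and 1 U/mL HRP to enzyme pretreated with compound for 30 min at 37 °C. IC50 values derive from four-variable logistic fits.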

[1] = target: T2, recombinant human DAO (diamine oxidase) (Homo sapiens, UniProt P19801); assay: Activity on recombinant human DAO, Amplex Red method, 1 mM putrescine substrate; details: recombinant human DAO, read-out: Inhibitory Activity (IC50, nM) DAO
T2 construct: purchased R&D systems
T2 sequence (P19801 20-751): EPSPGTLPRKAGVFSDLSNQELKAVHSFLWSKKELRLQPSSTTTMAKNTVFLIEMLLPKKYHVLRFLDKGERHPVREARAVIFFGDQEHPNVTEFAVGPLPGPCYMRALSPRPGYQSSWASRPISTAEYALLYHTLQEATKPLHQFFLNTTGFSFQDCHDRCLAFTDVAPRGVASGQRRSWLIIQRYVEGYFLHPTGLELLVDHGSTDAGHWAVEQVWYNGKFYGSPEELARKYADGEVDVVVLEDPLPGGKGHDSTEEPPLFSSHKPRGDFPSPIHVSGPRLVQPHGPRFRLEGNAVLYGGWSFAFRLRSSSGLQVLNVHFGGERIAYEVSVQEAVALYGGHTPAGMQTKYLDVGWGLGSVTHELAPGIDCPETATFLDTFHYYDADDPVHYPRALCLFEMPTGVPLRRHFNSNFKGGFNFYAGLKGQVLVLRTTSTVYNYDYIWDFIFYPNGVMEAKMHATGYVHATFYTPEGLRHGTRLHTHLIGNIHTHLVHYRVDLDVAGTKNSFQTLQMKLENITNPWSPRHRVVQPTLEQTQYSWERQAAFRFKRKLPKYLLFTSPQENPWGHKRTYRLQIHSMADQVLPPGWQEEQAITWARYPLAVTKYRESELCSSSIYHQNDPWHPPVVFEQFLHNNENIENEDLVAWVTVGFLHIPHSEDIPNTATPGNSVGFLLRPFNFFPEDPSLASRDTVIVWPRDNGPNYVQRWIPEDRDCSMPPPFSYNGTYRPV
Outline: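 Inhibition of recombinant human DAO (diamine oxidase, R&D systems) was assessed with the Amplex Red Hydrogen Peroxide Assay Kit. Hydrogen peroxide produced from 1 mM putrescine was detected through an HRP-coupled reaction that converts Amplex Red into fluorescent resorufin, read at 544 nm excitation and 590 nm emission. IC50 values came from four-parameter logistic fits in GraphPad Prism.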

[2] = target: T3, recombinant human MAO-A (monoamine oxidase-A) (Homo sapiens, UniProt P21397); assay: Activity on recombinant human MAO-A, Amplex Red method, 0.5 mM tyramine substrate; details: read-out: Inhibitory Activity (IC50, nM) MAO-A
T3 construct: purchased Sigma-Aldrich
T3 sequence (P21397 1-527): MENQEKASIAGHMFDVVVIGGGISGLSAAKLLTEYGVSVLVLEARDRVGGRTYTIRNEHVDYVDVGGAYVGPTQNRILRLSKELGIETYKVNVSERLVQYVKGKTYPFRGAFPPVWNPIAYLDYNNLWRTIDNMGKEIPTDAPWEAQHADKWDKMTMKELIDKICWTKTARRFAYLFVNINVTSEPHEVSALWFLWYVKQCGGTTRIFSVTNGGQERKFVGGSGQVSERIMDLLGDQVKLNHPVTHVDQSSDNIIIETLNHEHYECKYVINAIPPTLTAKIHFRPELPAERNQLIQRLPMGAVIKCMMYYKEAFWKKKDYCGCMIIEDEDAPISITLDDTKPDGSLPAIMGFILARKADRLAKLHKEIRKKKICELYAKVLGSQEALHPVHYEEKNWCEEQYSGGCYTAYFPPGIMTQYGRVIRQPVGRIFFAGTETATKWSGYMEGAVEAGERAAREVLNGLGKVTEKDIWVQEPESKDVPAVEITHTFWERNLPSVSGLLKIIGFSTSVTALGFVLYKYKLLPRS
Method: (§1) The compounds according to the present technology were evaluated in terms of activity on recombinant human VAP-1 (R&D systems) by measuring the level of hydrogen peroxide in horseradish peroxidase (HRP)-coupled reaction using Amplex Red Hydrogen Peroxide Assay Kit (Molecular Probes, Invitrogen, USA). The experiment was carried out at room temperature using benzylamine as a substrate. In the HRP-coupled reaction, hydrogen peroxide oxidation of 10-acetyl-3,7-dihydroxyphenoxazine (Amplex Red reagent) produces resorufin, which is a highly fluorescent compound. Briefly, the test compound was dissolved in dimethyl sulfoxide (DMSO) at a concentration of 20 mM. The dose-response assessment was made by 1:3 serial dilution in DMSO, thereby creating an 8 point curve. The concentration of the upper part was controlled according to the efficacy of the compounds, followed by dilution with a reaction buffer solution to obtain a final DMSO concentration less than 1%. To each well of a 96 black well plate, human VAP-1 purified in 50 mM sodium phosphate buffer solution (pH7.4) was added. The test compounds dissolved in DMSO were incubated with the human VAP-1 enzymes at 37° C. for 30 minutes. After 30-minute incubation, each well is added with a reaction mixture containing 200 uM Amplex Red reagent prepared from 50 mM sodium phosphate buffer solution (pH 7.4), 1 mM benzylamine, and 1 U/mL HRP. Fluorescence intensity was measured at several time points during 1-2 hours using a microplate reader (Flexstation3, Molecular Devices) under the wavelength condition exciting at 544 nm and reading the emission at 590 nm. The inhibitory effect of the compounds was measured as a decrease (%) in the signal rate as compared to the control group without any inhibitor (only diluted DMSO). Data was fixed to a logistic model with four variables and IC50 value was calculated using GraphPad Prism program.
(§2) In addition, the compounds according to the present technology were evaluated in terms of activity on a recombinant human MAO-A (monoamine oxidase-A, Sigma-Aldrich) and a recombinant human MAO-B (monoamine oxidase-B, Sigma-Aldrich) by using as substrates, 0.5 mM tyramine and 1 mM benzylamine, respectively, with a method similar to the activity evaluation method for recombinant human VAP-1. The compounds according to the present technology were also evaluated in terms of activity on a recombinant human DAO (diamine oxidase, R&D systems) by using as a substrate 1 mM putrescine with a method similar to the activity evaluation method for recombinant human VAP-1.

[3] = target: T4, recombinant human MAO-B (monoamine oxidase-B) (Homo sapiens, UniProt P27338); assay: Activity on recombinant human MAO-B, Amplex Red method, 1 mM benzylamine substrate; details: read-out: Inhibitory Activity (IC50, nM) MAO-B
T4 construct: purchased Sigma-Aldrich
T4 sequence (P27338 1-520): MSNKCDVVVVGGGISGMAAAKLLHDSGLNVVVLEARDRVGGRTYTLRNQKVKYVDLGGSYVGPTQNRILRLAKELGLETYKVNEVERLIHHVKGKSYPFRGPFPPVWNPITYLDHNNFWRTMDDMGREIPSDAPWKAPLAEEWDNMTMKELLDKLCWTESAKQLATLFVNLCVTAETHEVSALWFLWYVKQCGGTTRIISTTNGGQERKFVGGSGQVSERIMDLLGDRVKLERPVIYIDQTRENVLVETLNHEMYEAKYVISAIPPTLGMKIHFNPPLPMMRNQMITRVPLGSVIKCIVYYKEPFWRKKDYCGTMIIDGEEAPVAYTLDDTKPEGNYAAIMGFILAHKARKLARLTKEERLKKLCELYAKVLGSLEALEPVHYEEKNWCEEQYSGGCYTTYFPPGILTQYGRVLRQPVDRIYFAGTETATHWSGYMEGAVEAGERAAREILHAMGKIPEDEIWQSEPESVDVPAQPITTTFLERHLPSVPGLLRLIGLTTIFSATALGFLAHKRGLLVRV
Method: as §1, §2

[4] = 1 mM putrescine, * = between 10 and 100 nM, ** = between 300 and 1000 nM

SMILES | IC50 (recombinant human VAP-1) [nM] | IC50 ([1]; 1 mM putrescine substrate) [nM] | IC50 ([2]; 0.5 mM tyramine substrate) [nM] | IC50 ([3]; 1 mM benzylamine substrate) [nM] | IC50 (recombinant human VAP-1; 30 min preincubation at 37° C.) [nM] | IC50 [1, 4] [nM] | IC50 ([2]; 0.5 mM tyramine) [nM] | IC50 ([3]; 1 mM benzylamine) [nM]
CC(=O)Nc1nc2cc(-c3cnc(-n4cnn(C/C(=C/F)CN)c4=O)cn3)ccc2s1 [Example 225, N-[5-(5-{1-[(2E)-2-(aminomethyl)-3-fluoroprop-2-en-1-yl]-5-oxo-1,5-dihydro-4H-1,2,4-triazol-4-yl}pyrazin-2-yl)-1,3-benzothiazol-2-yl]acetamide] | 1 | < 100 | > 100000 | 53 | – | – | – | –
CS(=O)(=O)c1ccc(-c2ccc(-c3cccc(-n4cnn(C/C(=C/F)CN)c4=O)c3)cc2)cc1 [Example 66, 2-[(2E)-2-(aminomethyl)-3-fluoroprop-2-en-1-yl]-4-[4″-(methylsulfonyl)-1,1′:4′,1″-terphenyl-3-yl]-2,4-dihydro-3H-1,2,4-triazol-3-one hydrochloride] | – | – | – | – | 0.66 | 3.9 | > 100000 | > 10000
NC/C(=C\F)Cn1ncn(-c2ncc(-c3ccc(-c4nnc[nH]4)cc3)s2)c1=O [Example 227, 2-[(2E)-2-(aminomethyl)-3-fluoroprop-2-en-1-yl]-4-{5-[4-(4H-1,2,4-triazol-3-yl)phenyl]-1,3-thiazol-2-yl}-2,4-dihydro-3H-1,2,4-triazol-3-one] | 0.61 | 0.24 | > 100000 | 164 | – | – | – | –
Cc1cc(-c2ccc(C(=O)N3CCOCC3)cc2)cnc1-n1cnn(C/C(=C/F)CN)c1=O [Example 146, 2-[(2E)-2-(aminomethyl)-3-fluoroprop-2-en-1-yl]-4-{3-methyl-5-[4-(morpholin-4-ylcarbonyl)phenyl]pyridin-2-yl}-2,4-dihydro-3H-1,2,4-triazol-3-one hydrochloride] | – | – | – | – | 0.7 | 17000 | > 100000 | > 10000
NC/C(=C\F)Cn1ncn(-c2ccnc(-c3ccc4c(c3)OCO4)c2)c1=O [Example 209, 2-[(2E)-2-(aminomethyl)-3-fluoroprop-2-en-1-yl]-4-[2-(1,3-benzodioxol-5-yl)pyridin-4-yl]-2,4-dihydro-3H-1,2,4-triazol-3-one hydrochloride] | 0.63 | < 10 | > 100000 | 17 | – | – | – | –
Cn1cncc1C#Cc1cccc(-n2cnn(C/C(=C/F)CN)c2=O)n1 [Example 256, 2-[(E)-2-(aminomethyl)-3-fluoro-allyl]-4-[6-[2-(3-methylimidazol-4-yl)ethynyl]-2-pyridyl]-1,2,4-triazol-3-one] | 0.3 | 27 | > 100000 | > 10000 | – | – | – | –
NC/C(=C\F)Cn1ncn(-c2ccc(Br)cc2F)c1=O [Example 12, 2-[(2E)-2-(aminomethyl)-3-fluoroprop-2-en-1-yl]-4-(4-bromo-2-fluorophenyl)-2,4-dihydro-3H-1,2,4-triazol-3-one hydrochloride] | – | – | – | – | 0.75 | 38 | 1500 | 281
Cn1nc(C(F)(F)F)cc1-c1cccc(-n2cnn(C/C(=C/F)CN)c2=O)n1 [Example 192, 2-[(2E)-2-(aminomethyl)-3-fluoroprop-2-en-1-yl]-4-{6-[1-methyl-3-(trifluoromethyl)-1H-pyrazol-5-yl]pyridin-2-yl}-2,4-dihydro-3H-1,2,4-triazol-3-one hydrochloride] | 1.4 | 0.4 | > 100000 | 250 | – | – | – | –
